Laboratory results from patent US20100120690A1, “Polypeptides Having Antimicrobial Activity and Polynucleotides Encoding Same” (Novozymes Adenium Biotech A/S, priority 2005, published 2010).

Columns and labels:
[1] = tested on: panel of 6 different strains of Staphylococcus aureus; assay: Average MIC, NCCLS/CLSI guidelines using caMHB (Example 6); type: cell-based; details: average over 6 S. aureus strains, duplicate; MIC above 32 counted as 64; read after 18-24 hours at 37° C.
Summary of the method: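 MICs were determined by broth dilution per NCCLS/CLSI in caMHB against six S. aureus strains (four MSSA, two MRSA), with peptides at 0.03–32 microgram/mL, read after 18-24 h at 37° C. Each was tested in duplicate and the two results averaged; MICs above 32 micrograms/mL were counted as 64.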

B. subtilis [2] = assay: Minimal Inhibitory Concentration, NCCLS guidelines (Example 4); type: cell-based, Bacillus subtilis; details: purified peptide
Procedure: (§1) The Minimal Inhibitory Concentration (MIC, micrograms/mL) was determined to test for their antimicrobial activity following the NCCLS guidelines (Clinical and Laboratory Standards Institute; formerly known as National Committee for Clinical and Laboratory Standards).

S. aureus = assay: as above; type: cell-based, Staphylococcus aureus; details: purified peptide
Procedure: as §1

Staphylococcus carnosus = assay: TAPS (Trans Acting Peptide System) assay, radial diffusion read-out; type: cell-based; set-up: key: classified as 4>3>2>1; whereas 4 is better than 1; classified as 4>3>2>1; classified as 4>3>2>1; wildtype activity corresponds to 1; details: peptide expressed in E. coli
Procedure: A range of antimicrobial polypeptides, which are variants of SEQ ID NO: 1, were tested in the TAPS assay. TAPS may be used to identify new or improved genes encoding peptides that can kill or inhibit the growth of target cells (see PCT application WO 2004/033715). The TAPS assay, an acronym for Trans Acting Peptide System, is based on having a sensitive host producing a peptide followed by screening for its activity in trans against an indicator strain. The advantage of this system is based on that the antimicrobial peptide is expressed in the Gram-negative bacterium E. coli and its antimicrobial activity can be monitored on different microbes including Gram-negatives, positives or fungi. Additionally, TAPS offers the possibility to produce correctly folded AMPs containing disulfide bonds in the host cells, thereby retaining their antimicrobial activities.
The TAPS approach requires first, that expression of the peptide is under control of an inducible promoter with tight regulation, because the host cells are sensitive to the peptide when producing it. Secondly, the produced peptide has to be released to the media so that it can interact with the target organism.
The TAPS screening can be carried out either in solid or liquid media. On solid media, a plasmid library is initially introduced into E. coli host cells. […] In the next step, the filter containing the colonies is transferred to LB growth medium containing inducer (0.1% arabinose) to permit peptide synthesis. Subsequently, the target strain, for example S. carnosus, is overlaid onto the plate and allowed to grow for 12-16 hours at 37° C. Finally, visual inspection of the host cells capable of reducing the proliferation of the target cells is performed and the nucleotide sequence encoding for the antimicrobial peptide is recovered from the host cells. DNA sequence analysis of the variants is obtained to elucidate the nature of the peptide.
As mentioned above, the TAPS screening can also be performed using liquid medium. This procedure requires the use of robotics to analyze large number of clones. In this system, the host E. coli origami cells are transformed with the plasmid library and plated out on LB medium+0.2% glucose+ampicillin (200 mg/L). Independent colonies are then inoculated into 96 or 384-well plates containing 200 micro-L of TB medium+ampicillin (200 mg/L) and cultured overnight at 37° C. These cultures are then replicated robotically and grown to exponential phase until inducer (0.1% arabinose) is added to trigger peptide synthesis. The next step consists in hydrolyzing the cells such that the peptide is released to the media by hot acid hydrolysis. This treatment consists on adding 1 M sodium Phosphate buffer pH 2.3 to obtain a final pH approximately of 2.3 and incubating the cultures overnight at 80° C. Next day, a 25 micro-L aliquot of the hydrolyzed cultures is used to perform an activity test against the desired target organisms. The activity test performed was a Radial Diffusion Assay (RDA) where an aliquot of the hydrolyzed cultures was added to the agarose media inoculated with the target strain, S. carnosus. […] Measurements of the diameter of the clearing zones were performed to quantify the potency of the antimicrobial activity of the peptides.
The antimicrobial activity (against Staphylococcus carnosus) of the tested plectasin variants, which was measured using the TAPS assay, is shown in table 3. The antimicrobial activity corresponds to the clearing zone size and has been classified as 4>3>2>1; whereas 4 is better than 1, and wildtype activity corresponds to 1.

M. luteus [3] = assay: Minimal Inhibitory Concentration, NCCLS guidelines (Example 4); type: cell-based, Micrococcus luteus; details: purified peptide
Procedure: as §1

M. luteus [4] = assay: Minimal Effective Concentration (MEC) assay; type: cell-based, Micrococcus luteus
Procedure: (§2) Three antimicrobial polypeptides, which are variants of SEQ ID NO: 1, were tested for antimicrobial activity. A Minimal Effective Concentration assay (MEC, expressed as micrograms/mL) against different microorganisms was performed using the three plectasin mutants, Y40YR, N17R and Y25R following the protocol described in the book of Methods in Molecular Biology, Vol. 78, Antibacterial peptide protocol William M. Shafer, Human Press.

B. subtilis [5] = assay: Minimal Effective Concentration (MEC) assay; type: cell-based, Bacillus subtilis
Procedure: as §2

S. epidermis = assay: Minimal Effective Concentration (MEC) assay; type: cell-based, Staphylococcus epidermidis
Procedure: as §2

[6] = tested on: Staphylococcus aureus, MRSA ST80 (2003); assay: MIC, NCCLS/CLSI guidelines (Example 5), strain E; type: cell-based; details: relative to wildtype Plectasin; average of two independent experiments
Summary of the method: (§3)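 Scores express each variant's MIC as a fraction of wild-type plectasin MIC (0: >100%; 1: 80-100%; 2: 50-80%; 3: <50%), averaged over two independent runs. Purified recombinant peptides; MIC by the CLSI (formerly NCCLS) method.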

[7] = tested on: Staphylococcus aureus, ATCC 25923; assay: MIC, NCCLS/CLSI guidelines (Example 5), strain B; type: cell-based; details: relative to wildtype Plectasin; average of two independent experiments
Summary of the method: (§4)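 MICs of purified plectasin peptides are measured according to NCCLS/CLSI guidance. Each value averages duplicate independent experiments and is given as a category relative to wild-type: 0 above 100%, 1 80-100%, 2 50-80%, 3 below 50%.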

[8] = tested on: Staphylococcus aureus, ATCC 29737; assay: MIC, NCCLS/CLSI guidelines (Example 5), strain C; type: cell-based; details: relative to wildtype Plectasin; average of two independent experiments
Summary of the method: as §4

[9] = tested on: Staphylococcus aureus, MRSA ST5 (2001); assay: MIC, NCCLS/CLSI guidelines (Example 5), strain D; type: cell-based; details: relative to wildtype Plectasin; average of two independent experiments
Summary of the method: as §3

[10] = tested on: Staphylococcus aureus, ATCC 29213; assay: MIC, NCCLS/CLSI guidelines (Example 5), strain A; type: cell-based; details: relative to wildtype Plectasin; average of two independent experiments
Summary of the method: as §4

Substance | Average MIC [1] [micrograms/mL] | MIC against B. subtilis (B. subtilis [2]) [micrograms/mL] | MIC against S. aureus (S. aureus) [micrograms/mL] | Activity (antimicrobial activity, clearing zone size) (Staphylococcus carnosus) | MIC against M. luteus (M. luteus [3]) [micrograms/mL] | MEC against M. luteus (M. luteus [4]) [micrograms/mL] | MEC against B. subtilis (B. subtilis [5]) [micrograms/mL] | MEC against S. epidermis (S. epidermis) [micrograms/mL] | Relative MIC, strain E [6] | Relative MIC, strain B [7] | Relative MIC, strain C [8] | Relative MIC, strain D [9] | Relative MIC, strain A [10]
GFGCNGPWDEGDKQCHNHCKSIKGYRGGYCAKGGFVCKCYR [D11G + M13K + K26R + Y40YR] | 12 | <0.03 | 0.50 | 4 | 0.50 | – | – | – | – | – | – | – | –
GFGCNGPWDEDDMQCHNHCKSIKGYKGGYCAKGGFVCKCYR [Mutation Y40YR] | – | – | – | 2 | – | 0.18 | 0.05 | 0.31 | – | – | – | – | –
GFGCNGPWDEGDMQCHNHCKSIKGYRGGYCAKGGFVCKCY [D11G + K26R] | 11 | 0.50 | 2 | 2 | 8 | – | – | – | – | – | – | – | –
GFGCNGPWDEDDMQCHRHCKSIKGYKGGYCAKGGFVCKCY [Mutation N17R] | 4 | – | – | 2 | – | 0.32 | 0.07 | 0.59 | 2 (50-80% of Plectasin wildtype MIC) | 3 (<50% of Plectasin wildtype MIC) | 3 (<50% of Plectasin wildtype MIC) | 3 (<50% of Plectasin wildtype MIC) | –
GFGCNGPWDEGDMQCHNHCKSIKGYRGGYCAKGGFVCKCYR (Synthetic antimicrobial polypeptide) [D11G + K26R + Y40YR] | 9 | 0.06 | 0.50 | 4 | 0.25 | – | – | – | – | 3 (<50% of Plectasin wildtype MIC) | 3 (<50% of Plectasin wildtype MIC) | 3 (<50% of Plectasin wildtype MIC) | 3 (<50% of Plectasin wildtype MIC)
GFGCNGPWDEDDKQCHNHCKSIKGYKGGYCAKGGFVCKCYR [M13K + Y40YR] | 12 | 0.25 | 2 | 4 | 2 | – | – | – | – | – | – | – | –
Y25R (GFGCNGPWDEDDMQCHNHCKSIKGRKGGYCAKGGFVCKCY) [Mutation Y25R] | – | – | – | – | – | 1.40 | 0.04 | – | – | – | – | – | –
Q14K + K26R: variant of Plectasin (SEQ ID NO: 1) (GFGCNGPWDEDDMKCHNHCKSIKGYRGGYCAKGGFVCKCY) | 6 | 0.13 | 2 | – | 1 | – | – | – | 3 (<50% of Plectasin wildtype MIC) | 2 (50-80% of Plectasin wildtype MIC) | 3 (<50% of Plectasin wildtype MIC) | 3 (<50% of Plectasin wildtype MIC) | 3 (<50% of Plectasin wildtype MIC)
